The results in this text go back to patent publication US12459951B2, “Compounds that interact with RAS superfamily proteins for treatment of cancers, inflammatory diseases, rasopathies, and fibrotic disease” (SHY Therapeutics, LLC, priority 2022, dated 2025).

The first experiment deals with Smad2/Smad3 phosphorylation. The experiment in a line: Phospho-Smad2/3 Inhibition Assay (western blot), Panc-1. The experiment is classed as cell-based, human. The settings on record: at 10 μM, Panc-1 pancreatic cancer cell line; starred symbols = activation. An outline of the steps:
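Panc-1 cells (KRas G12D), starved overnight in 0.5% FBS, treated 3 h at 37° C with compound at 10 μM final (0.3% DMSO) or serial dilutions for IC50, then stimulated with 10 ng/ml TGF-b1 for 1 h. Phospho-Smad2 (Ser465/467) and phospho-Smad3 (Ser423/425) detected by western blot.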
Background: Immunoblotting shows a protein as a band on a membrane.
For the compound `COCCO[C@H]1C[C@H](Nc2nc(-c3nccn3C)nn3cc(-c4ccn(C(C)C)n4)c(C)c23)C1` [Compound 92, 6-(1-Isopropyl-1H-pyrazol-3-yl)-N-((1r,3r)-3-(2-methoxyethoxy)cyclobutyl)-5-methyl-2-(1-methyl-1H-imidazol-2-yl)pyrrolo[2,1-f][1,2,4]triazin-4-amine], the “% inh of Smad2/3 phosphorylation in Panc-1” value is on record as “A* (A* = 1-25% activation)”.

For the compound `COCc1csc(Nc2nc(-c3nccn3C)nn3cc(-c4ccn(C(C)C)n4)c(C)c23)n1` [Compound 79, N-(6-(1-Isopropyl-1H-pyrazol-3-yl)-5-methyl-2-(1-methyl-1H-imidazol-2-yl)pyrrolo[2,1-f][1,2,4]triazin-4-yl)-4-(methoxymethyl)thiazol-2-amine], the “% inh of Smad2/3 phosphorylation in Panc-1” value is recorded as “B* (B* = 26-45% activation)”.

Regarding `Cc1c(-c2ccn(C(C)C)n2)cn2nc(-c3nccn3C)nc(Nc3ccn(C4CC4)n3)c12` [Compound 84, N-(1-Cyclopropyl-1H-pyrazol-3-yl)-6-(1-isopropyl-1H-pyrazol-3-yl)-5-methyl-2-(1-methyl-1H-imidazol-2-yl)pyrrolo[2,1-f][1,2,4]triazin-4-amine], the “% inh of Smad2/3 phosphorylation in Panc-1” value is reported as “C* (C* = 46-75% activation)”.

With `COc1ncccc1Nc1nc(-c2nccn2C)nn2cc(-c3ccn(C(C)C)n3)c(C)c12` [Compound 85, 6-(1-Isopropyl-1H-pyrazol-3-yl)-N-(2-methoxypyridin-3-yl)-5-methyl-2-(1-methyl-1H-imidazol-2-yl)pyrrolo[2,1-f][1,2,4]triazin-4-amine], the “% inh of Smad2/3 phosphorylation in Panc-1” value is given as “D (D = 76-100% inhibition)”.

With `COc1ncc(Nc2nc(-c3nccn3C)nn3cc(-c4ccn(C(C)C)n4)c(C)c23)cn1` [Compound 80, 6-(1-Isopropyl-1H-pyrazol-3-yl)-N-(2-methoxypyrimidin-5-yl)-5-methyl-2-(1-methyl-1H-imidazol-2-yl)pyrrolo[2,1-f][1,2,4]triazin-4-amine], the “% inh of Smad2/3 phosphorylation in Panc-1” value was “B* (B* = 26-45% activation)”.

Turning to `COc1nccc(Nc2nc(-c3nccn3C)nn3cc(-c4ccn(C(C)C)n4)c(C)c23)n1` [Compound 86, 6-(1-Isopropyl-1H-pyrazol-3-yl)-N-(2-methoxypyrimidin-4-yl)-5-methyl-2-(1-methyl-1H-imidazol-2-yl)pyrrolo[2,1-f][1,2,4]triazin-4-amine], the “% inh of Smad2/3 phosphorylation in Panc-1” value is listed as “B* (B* = 26-45% activation)”.

With `COc1cc(Nc2nc(-c3nccn3C)nn3cc(-c4ccn(C(C)C)n4)c(C)c23)ccn1` [Compound 87, 6-(1-Isopropyl-1H-pyrazol-3-yl)-N-(2-methoxypyridin-4-yl)-5-methyl-2-(1-methyl-1H-imidazol-2-yl)pyrrolo[2,1-f][1,2,4]triazin-4-amine], the “% inh of Smad2/3 phosphorylation in Panc-1” value was “B* (B* = 26-45% activation)”.

As for `COc1cnc(Nc2nc(-c3nccn3C)nn3cc(-c4ccn(C(C)C)n4)c(C)c23)cn1` [Compound 83, 6-(1-Isopropyl-1H-pyrazol-3-yl)-N-(5-methoxypyrazin-2-yl)-5-methyl-2-(1-methyl-1H-imidazol-2-yl)pyrrolo[2,1-f][1,2,4]triazin-4-amine], the “% inh of Smad2/3 phosphorylation in Panc-1” value was “B* (B* = 26-45% activation)”.

For `Cc1c(-c2ccn(C(C)C)n2)cn2nc(-c3nccn3C)nc(Nc3ncc(C4CC4)o3)c12` [Compound 90, 5-Cyclopropyl-N-(6-(1-isopropyl-1H-pyrazol-3-yl)-5-methyl-2-(1-methyl-1H-imidazol-2-yl)pyrrolo[2,1-f][1,2,4]triazin-4-yl)oxazol-2-amine], the “% inh of Smad2/3 phosphorylation in Panc-1” value is listed as “C* (C* = 46-75% activation)”.

As to `Cc1c(-c2ccn(C(C)C)n2)cn2nc(-c3nccn3C)nc(Nc3nnc(C4CC4)[nH]3)c12` [Compound 81, N-(5-Cyclopropyl-4H-1,2,4-triazol-3-yl)-6-(1-isopropyl-1H-pyrazol-3-yl)-5-methyl-2-(1-methyl-1H-imidazol-2-yl)pyrrolo[2,1-f][1,2,4]triazin-4-amine], the “% inh of Smad2/3 phosphorylation in Panc-1” value was “A* (A* = 1-25% activation)”.

As for `Cc1c(-c2ccn(C(C)C)n2)cn2nc(-c3nccn3C)nc(Nc3cnn(C(C)C)n3)c12` [Compound 77, 6-(1-Isopropyl-1H-pyrazol-3-yl)-N-(2-isopropyl-2H-1,2,3-triazol-4-yl)-5-methyl-2-(1-methyl-1H-imidazol-2-yl)pyrrolo[2,1-f][1,2,4]triazin-4-amine], the “% inh of Smad2/3 phosphorylation in Panc-1” value is recorded as “C (C = 46-75% inhibition)”.

Regarding `COc1cccnc1Nc1nc(-c2nccn2C)nn2cc(-c3ccn(C(C)C)n3)c(C)c12` [Compound 89, 6-(1-Isopropyl-1H-pyrazol-3-yl)-N-(3-methoxypyridin-2-yl)-5-methyl-2-(1-methyl-1H-imidazol-2-yl)pyrrolo[2,1-f][1,2,4]triazin-4-amine], the “% inh of Smad2/3 phosphorylation in Panc-1” value is reported as “C* (C* = 46-75% activation)”.

On to `Cc1c(-c2ccn(C(C)C)n2)cn2nc(-c3nccn3C)nc(Nc3noc(C4CC4)n3)c12` [Compound 75, 5-Cyclopropyl-N-(6-(1-isopropyl-1H-pyrazol-3-yl)-5-methyl-2-(1-methyl-1H-imidazol-2-yl)pyrrolo[2,1-f][1,2,4]triazin-4-yl)-1,2,4-oxadiazol-3-amine], for which the “% inh of Smad2/3 phosphorylation in Panc-1” value is recorded as “A (A = 1-25% inhibition)”.

`CCc1nc(Nc2nc(-c3nccn3C)nn3cc(-c4ccn(C(C)C)n4)c(C)c23)nn1C` [Compound 76, N-(5-Ethyl-1-methyl-1H-1,2,4-triazol-3-yl)-6-(1-isopropyl-1H-pyrazol-3-yl)-5-methyl-2-(1-methyl-1H-imidazol-2-yl)pyrrolo[2,1-f][1,2,4]triazin-4-amine]: the “% inh of Smad2/3 phosphorylation in Panc-1” value was “B (B = 26-45% inhibition)”.

For the compound `COc1ncncc1Nc1nc(-c2nccn2C)nn2cc(-c3ccn(C(C)C)n3)c(C)c12` [Compound 88, 6-(1-Isopropyl-1H-pyrazol-3-yl)-N-(4-methoxypyrimidin-5-yl)-5-methyl-2-(1-methyl-1H-imidazol-2-yl)pyrrolo[2,1-f][1,2,4]triazin-4-amine], the “% inh of Smad2/3 phosphorylation in Panc-1” value is reported as “C* (C* = 46-75% activation)”.

On to `Cc1c(-c2ccn(C(C)C)n2)cn2nc(-c3nccn3C)nc(Nc3cc4n(n3)CCO4)c12` [Compound 91, N-(6-(1-Isopropyl-1H-pyrazol-3-yl)-5-methyl-2-(1-methyl-1H-imidazol-2-yl)pyrrolo[2,1-f][1,2,4]triazin-4-yl)-2,3-dihydropyrazolo[5,1-b]oxazol-6-amine], for which the “% inh of Smad2/3 phosphorylation in Panc-1” value is reported as 0 (0 = 0% inhibition).

Consider `Cc1c(-c2ccn(C(C)C)n2)cn2nc(-c3nccn3C)nc(Nc3cn(C(C)C)nn3)c12` [Compound 78, N-(1-Isopropyl-1H-1,2,3-triazol-4-yl)-6-(1-isopropyl-1H-pyrazol-3-yl)-5-methyl-2-(1-methyl-1H-imidazol-2-yl)pyrrolo[2,1-f][1,2,4]triazin-4-amine], for which the “% inh of Smad2/3 phosphorylation in Panc-1” value is given as “A (A = 1-25% inhibition)”.

A further experiment concerns MAPK p38 phosphorylation. The experiment in a line: MAPK p38 Activation Assay (western blot), Panc-1. The experiment is classed as cell-based, human. The conditions noted are these: at 10 μM, Panc-1 pancreatic cancer cell line; starred symbols = activation. A digest of the protocol:
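Panc-1 cells (KRas G12D) were treated with compound for 6 h at 37 °C, at 10 μM or as serial dilutions for IC50, with 0.3% DMSO. Method 1 used overnight serum-starved cells (0.5% FBS) stimulated with 1.5 ng/ml EGF for 15 min; Method 2 used unstimulated cells in 10% FBS. Phospho-p38 (Thr180/Tyr182) was detected by western blot.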
Regarding `COC[C@@H]1CC[C@@H]1CNc1nc(-c2nccn2C)nn2cc(-c3ccn(C(C)C)n3)c(-c3ccccc3)c12` (racemic) [Compound 20, rac 6-(1-Isopropyl-1H-pyrazol-3-yl)-N-(((1S,2R)-2-(methoxymethyl)cyclobutyl)methyl)-2-(1-methyl-1H-imidazol-2-yl)-5-phenylpyrrolo[2,1-f][1,2,4]triazin-4-amine], the “% inh of MAPK p38 in Panc-1” value was “H* (H* ≥ 100% activation)”.

Take `COC[C@@H]1CC[C@@H]1CNc1nc(-c2nccn2C)nn2cc(-c3ccn(C(C)C)n3)c(C)c12` (racemic) [Compound 3, rac 6-(1-Isopropyl-1H-pyrazol-3-yl)-N-(((1S,2R)-2-(methoxymethyl)cyclobutyl)methyl)-5-methyl-2-(1-methyl-1H-imidazol-2-yl)pyrrolo[2,1-f][1,2,4]triazin-4-amine]: the “% inh of MAPK p38 in Panc-1” value is reported as “H* (H* ≥ 100% activation)”.

For the compound `COc1cccc(Nc2nc(-c3nccn3C)nn3cc(-c4ccn(C(C)C)n4)c(C)c23)n1` [Compound 7, 6-(1-Isopropyl-1H-pyrazol-3-yl)-N-(6-methoxypyridin-2-yl)-5-methyl-2-(1-methyl-1H-imidazol-2-yl)pyrrolo[2,1-f][1,2,4]triazin-4-amine], the “% inh of MAPK p38 in Panc-1” value is on record as “H* (H* ≥ 100% activation)”.

On to `COC1CCCN(c2nc(-c3nccn3C)nn3cc(-c4ccn(C(C)C)n4)c(-c4ccccc4)c23)C1` (racemic) [Compound 21, rac 6-(1-Isopropyl-1H-pyrazol-3-yl)-4-(3-methoxypiperidin-1-yl)-2-(1-methyl-1H-imidazol-2-yl)-5-phenylpyrrolo[2,1-f][1,2,4]triazine], for which the “% inh of MAPK p38 in Panc-1” value was “H* (H* ≥ 100% activation)”.

Regarding `CO[C@H]1CC[C@@H](Nc2nc(-c3nccn3C)nn3cc(-c4ccn(C(C)C)n4)c(C)c23)C1` (racemic) [Compound 1, rac 6-(1-Isopropyl-1H-pyrazol-3-yl)-N-((1R,3S)-3-methoxycyclopentyl)-5-methyl-2-(1-methyl-1H-imidazol-2-yl)pyrrolo[2,1-f][1,2,4]triazin-4-amine], the “% inh of MAPK p38 in Panc-1” value is on record as “H* (H* ≥ 100% activation)”.

Regarding `CC(C)n1ccc(-c2cn3nc(-c4nccn4C)nc(O)c3c2-c2ccccc2)n1` [Compound 17, 6-(1-Isopropyl-1H-pyrazol-3-yl)-2-(1-methyl-1H-imidazol-2-yl)-5-phenylpyrrolo[2,1-f][1,2,4]triazin-4-ol], the “% inh of MAPK p38 in Panc-1” value is recorded as 0 (0 = 0% inhibition).

Regarding `COc1cc(Nc2nc(-c3nccn3C)nn3cc(-c4ccn(C(C)C)n4)c(-c4ccccc4)c23)ncn1` [Compound 22, 6-(1-Isopropyl-1H-pyrazol-3-yl)-N-(6-methoxypyrimidin-4-yl)-2-(1-methyl-1H-imidazol-2-yl)-5-phenylpyrrolo[2,1-f][1,2,4]triazin-4-amine], the “% inh of MAPK p38 in Panc-1” value is “H* (H* ≥ 100% activation)”.
